pIC50: −log10 of the molar value.

Inhibition of growth, IC50 and inhibition data for 15 molecules are collected here from ChEMBL document CHEMBL3785053, “Synthesis and screening of ursolic acid-benzylidine derivatives as potential anti-cancer agents” (Eur J Med Chem, 2016).

Data set [1] can be described thus: Cytotoxicity against human HCT116 cells at 50 uM after 48 hrs by MTT assay. Format: functional. As to conditions: HCT-116, 48 h, read-out: GI.
The nature of data set [2]: Cytotoxicity against human FR2 cells after 48 hrs by MTT assay. Format: cell-based. Conditions: FR2, 48 h.
Data set [3] relates to A549. Kind of data set: Cytotoxicity against human A549 cells after 48 hrs by MTT assay. Format: functional, cell-based. As to conditions: A549, 48 h. In general terms: Tetrazolium assays rely on reduction of a dye to a coloured formazan, in cell work by metabolically active cells.
The subject of data set [4] is A549. Kind of data set: Cytotoxicity against human A549 cells at 50 uM after 48 hrs by MTT assay. Format: functional. Conditions: A549, 48 h, read-out: GI.
Data set [5] can be described thus: Cytotoxicity against human FR2 cells at 50 uM after 48 hrs by MTT assay. Format: cell-based. Conditions: read-out: GI.
The nature of data set [6]: Cytotoxicity against human THP1 cells after 48 hrs by MTT assay. Format: functional, cell-based. As to conditions: THP-1, 48 h.
Data set [7] has as its system MCF7. Kind of data set: Cytotoxicity against human MCF7 cells after 48 hrs by MTT assay. Format: functional, cell-based. Conditions: MCF7, 48 h.
Data set [8] can be described thus: Cytotoxicity against human HCT116 cells after 48 hrs by MTT assay. Format: functional, cell-based. As to conditions: HCT-116, 48 h.
The subject of data set [9] is MCF7. Kind of data set: Cytotoxicity against human MCF7 cells at 50 uM after 48 hrs by MTT assay. As to conditions: MCF7, 48 h, read-out: GI. Format: functional.
Data set [10] in a line: Cytotoxicity against human THP1 cells at 50 uM after 48 hrs by MTT assay. Format: functional. As to conditions: THP-1, 48 h, read-out: GI.

One may read the pIC50 as the IC50 on a negative log10 scale, so that one unit is a factor of ten. Read a low pIC50 as a large IC50. For the molecule `C[C@H]1[C@H](C)CC[C@]2(C(=O)O)CC[C@]3(C)C(=CC[C@@H]4[C@@]5(C)C/C(=C\c6cccc(Cl)c6)C(=O)C(C)(C)[C@@H]5CC[C@]43C)[C@H]12`, the inhibition of growth at 50 µM in [1] turned out to be 90%; in the data set on A549 [4], 65%; with MCF7 [9] it was 70%; in data set [10], 85%. Further, the pIC50 was 4.35 in data set [2]; 5.15 in the data set on A549 [3]; 5.30 in data set [6]; 4.54 in the data set with MCF7 [7]; 5.39 in data set [8]. For the same molecule, the inhibition at 48 h, 50 µM in data set [5] turned out to be 80%.
In the case of `C[C@H]1[C@H](C)CC[C@]2(C(=O)O)CC[C@]3(C)C(=CC[C@@H]4[C@@]5(C)C/C(=C\c6ccc(Br)cc6)C(=O)C(C)(C)[C@@H]5CC[C@]43C)[C@H]12`, the inhibition of growth at 50 µM in data set [1] turned out to be 53%; in the data set on A549 [4] it was 60%; in the data set on MCF7 [9], 98%; in data set [10], 95%. Moreover, the pIC50 is 4.46 in data set [2]; 4.82 in the data set with A549 [3]; 5.30 in [6]; 5.30 with MCF7 [7]; 4.49 in data set [8]. Moreover, the inhibition at 48 h, 50 µM in data set [5] was 95%.
On to `C[C@H]1[C@H](C)CC[C@]2(C(=O)O)CC[C@]3(C)C(=CC[C@@H]4[C@@]5(C)C/C(=C\c6ccc([N+](=O)[O-])cc6[N+](=O)[O-])C(=O)C(C)(C)[C@@H]5CC[C@]43C)[C@H]12`, for which the inhibition of growth at 50 µM (in [1]; in the data set on A549 [4]; in the data set with MCF7 [9]; in data set [10]) was 98% throughout. Besides, the pIC50 in data set [2] is 4.15; with A549 [3] it was 5.70; in data set [6], 5.39; with MCF7 [7], 5.39; in data set [8], 5.30. Also, in data set [5], the inhibition at 48 h, 50 µM turned out to be 95%.
As to `C[C@H]1[C@H](C)CC[C@]2(C(=O)O)CC[C@]3(C)C(=CC[C@@H]4[C@@]5(C)C/C(=C\c6cccc7ccccc67)C(=O)C(C)(C)[C@@H]5CC[C@]43C)[C@H]12`, the inhibition of growth at 50 µM in data set [1] came out at 99%; in the data set on A549 [4] it was 58%; in the data set on MCF7 [9], 96%; in data set [10] it was 90%. Moreover, the pIC50 in data set [2] is 4.17; in the data set on A549 [3] it was 4.77; in data set [6], 5.68; in the data set on MCF7 [7], 4.92; in [8], 6.19. Besides, the inhibition at 48 h, 50 µM in [5] turned out to be 97%.
For the molecule `COc1cc(/C=C2\C[C@]3(C)[C@H]4CC=C5[C@@H]6[C@@H](C)[C@H](C)CC[C@]6(C(=O)O)CC[C@@]5(C)[C@]4(C)CC[C@H]3C(C)(C)C2=O)cc(OC)c1OC`, the inhibition of growth at 50 µM in data set [1] is 99%; in the data set with A549 [4], 99%; in the data set on MCF7 [9], 99%; in [10], 93%. Also, the negative-log IC50 (pIC50) in data set [2] is 4.46; with A549 [3], above 6.05; in [6] it was 5.04; with MCF7 [7], 5.40; in data set [8] it was above 6.05. In [5], the inhibition at 48 h, 50 µM is 81%.
In the case of `COc1cc(OC)c(OC)cc1/C=C1\C[C@]2(C)[C@H]3CC=C4[C@@H]5[C@@H](C)[C@H](C)CC[C@]5(C(=O)O)CC[C@@]4(C)[C@]3(C)CC[C@H]2C(C)(C)C1=O`, the inhibition of growth at 50 µM in data set [1] was determined as 85%; with A549 [4], 60%; in the data set on MCF7 [9], 76%; in [10] it was 80%. The pIC50 was 4.40 in [2]; 5.05 with A549 [3]; 5.70 in [6]; 4.70 in the data set with MCF7 [7]; 4.92 in data set [8]. In addition, the inhibition at 48 h, 50 µM in data set [5] is 76%.
Take `C[C@H]1[C@H](C)CC[C@]2(C(=O)O)CC[C@]3(C)C(=CC[C@@H]4[C@@]5(C)C/C(=C\c6ccc7ccccc7c6)C(=O)C(C)(C)[C@@H]5CC[C@]43C)[C@H]12`: the inhibition of growth at 50 µM came to 89% in data set [1], 60% in the data set with A549 [4], 90% in the data set on MCF7 [9] and 98% in [10]. Also, the pIC50 is 4.40 in data set [2]; 4.80 in the data set with A549 [3]; 5.30 in data set [6]; 4.68 in the data set with MCF7 [7]; 6.28 in data set [8]. Further, the inhibition at 48 h, 50 µM in data set [5] worked out at 75%.
Turning to `COc1ccccc1/C=C1\C[C@]2(C)[C@H]3CC=C4[C@@H]5[C@@H](C)[C@H](C)CC[C@]5(C(=O)O)CC[C@@]4(C)[C@]3(C)CC[C@H]2C(C)(C)C1=O`, the inhibition of growth at 50 µM in [1] came out at 98%; in the data set with A549 [4] it was 90%; in the data set with MCF7 [9], 99%; in data set [10] it was 96%. The pIC50 in data set [2] was 5.07; in the data set on A549 [3], 6.30; in data set [6] it was 6.05; in the data set with MCF7 [7], 5.30; in data set [8], 5.68. In addition, the inhibition at 48 h, 50 µM in data set [5] was 85%.
As to `C[C@H]1[C@H](C)CC[C@]2(C(=O)O)CC[C@]3(C)C(=CC[C@@H]4[C@@]5(C)C/C(=C\c6ccccc6[N+](=O)[O-])C(=O)C(C)(C)[C@@H]5CC[C@]43C)[C@H]12`, the inhibition of growth at 50 µM came to 91% in data set [1], 64% in the data set on A549 [4], 73% with MCF7 [9] and 86% in data set [10]. Further, the pIC50 was 4.36 in data set [2]; 5.19 with A549 [3]; 5.96 in [6]; 4.52 in the data set with MCF7 [7]; 5.30 in [8]. In data set [5], the inhibition at 48 h, 50 µM came to 78%.
Turning to `C[C@H]1[C@H](C)CC[C@]2(C(=O)O)CC[C@]3(C)C(=CC[C@@H]4[C@@]5(C)C/C(=C\c6ccc([N+](=O)[O-])cc6)C(=O)C(C)(C)[C@@H]5CC[C@]43C)[C@H]12`, the inhibition of growth at 50 µM in [1] was determined as 95%; in the data set with A549 [4], 99%; in the data set on MCF7 [9], 95%; in data set [10] it was 95%. Also, the pIC50 was 4.16 in data set [2]; 5.70 in the data set with A549 [3]; 4.85 in [6]; 5.30 with MCF7 [7]; 4.92 in data set [8]. For the same molecule, in [5], the inhibition at 48 h, 50 µM came to 99%.
`C[C@H]1[C@H](C)CC[C@]2(C(=O)O)CC[C@]3(C)C(=CC[C@@H]4[C@@]5(C)C/C(=C\C=C\c6ccccc6)C(=O)C(C)(C)[C@@H]5CC[C@]43C)[C@H]12`: the inhibition of growth at 50 µM in [1] turned out to be 98%; in the data set with A549 [4] it was 89%; with MCF7 [9], 99%; in [10], 93%. The pIC50 in data set [2] is 4.42; in the data set with A549 [3], 6.19; in data set [6] it was 4.80; in the data set on MCF7 [7] it was 4.92; in [8], 5.68. For the same molecule, the inhibition at 48 h, 50 µM in data set [5] was determined as 80%.
Consider `C[C@H]1[C@H](C)CC[C@]2(C(=O)O)CC[C@]3(C)C(=CC[C@@H]4[C@@]5(C)C/C(=C\c6ccc(Cl)cc6)C(=O)C(C)(C)[C@@H]5CC[C@]43C)[C@H]12`, for which the inhibition of growth at 50 µM (in data set [1]; in the data set with A549 [4]; with MCF7 [9]; in data set [10]) was 99% each time. The pIC50 in [2] is 4.16; in the data set with A549 [3] it was 5.54; in data set [6], 4.92; in the data set on MCF7 [7], 5.39; in data set [8], 4.82. For the same molecule, the inhibition at 48 h, 50 µM in [5] was determined as 99%.
For `C[C@H]1[C@H](C)CC[C@]2(C(=O)O)CC[C@]3(C)C(=CC[C@@H]4[C@@]5(C)CC[C@H](O)C(C)(C)[C@@H]5CC[C@]43C)[C@H]12` [URSOLIC ACID], the inhibition of growth at 50 µM in [1] is 53%; in the data set on A549 [4], 61%; with MCF7 [9], 57%; in data set [10], 84%. Moreover, the pIC50 was 4.51 in [2], 5.04 in data set [6] and 4.38 in [8]. Further, the inhibition at 48 h, 50 µM in [5] was 66%.
With `C[C@H]1[C@H](C)CC[C@]2(C(=O)O)CC[C@]3(C)C(=CC[C@@H]4[C@@]5(C)C/C(=C\c6ccc(O)cc6)C(=O)C(C)(C)[C@@H]5CC[C@]43C)[C@H]12`, the inhibition of growth at 50 µM was determined as 99% in data set [1], 98% with A549 [4], 98% in the data set with MCF7 [9] and 99% in data set [10]. Also, the pIC50 was 4.15 in data set [2]; 5.68 in the data set with A549 [3]; 5.39 in data set [6]; 5.30 in the data set on MCF7 [7]; 4.82 in [8]. In [5], the inhibition at 48 h, 50 µM worked out at 90%.
As for `O=c1[nH]cc(F)c(=O)[nH]1` [FLUOROURACIL], the inhibition of growth at 50 µM is 79% in data set [1], 82% in the data set on A549 [4], 92% in the data set on MCF7 [9] and 89% in [10]. Also, the pIC50 in the data set with A549 [3] was 5.85; in data set [6] it was 5.77; in the data set with MCF7 [7], 5.70; in data set [8], 5.64.
